In ChEMBL document CHEMBL4411335, “Identification and Optimization of Novel Small c-Abl Kinase Activators Using Fragment and HTS Methodologies” (J Med Chem, 2019):
≈ marks a conversion by molar mass, not a printed value.

Assays:
[1] = Toxicity in CD1 mouse assessed as induction of hemolysis at 100 mg/kg, BID for 10 days; format: organism-based; settings: in vivo, 240 h
[2] = Intrinsic clearance in CD1 mouse liver microsomes at 0.5 uM measured up 60 mins in presence of NADPH by LC-MS/MS analysis; format: ADME, Microsome; settings: 1 h
[3] = Kinetic solubility of the compound at pH 7.4 after 1 hr by CLND-based assay; format: physicochemical; settings: buffer, read-out: Kinetic_solubility
[4] = Terminal plasma concentration in CD1 mouse at 100 mg/kg, ip after 180 mins; format: ADME, organism-based; settings: read-out: Cp(T)
[5] = Permeability of the compound at […] after 3 hrs by artificial membrane permeability assay; format: ADME; settings: PAMPA; read-out: permeability
[6] = biological target: T1, Tyrosine-protein kinase ABL1 (Homo sapiens, UniProt P00519); assay: Induction of human c-ABL phosphorylation at Y245/Y412 residues in bacmam-induced HEK-MSR2 cell lysates by in-cell Western blot analysis; format: subcellular, Lysate
T1 sequence (P00519 whole entry): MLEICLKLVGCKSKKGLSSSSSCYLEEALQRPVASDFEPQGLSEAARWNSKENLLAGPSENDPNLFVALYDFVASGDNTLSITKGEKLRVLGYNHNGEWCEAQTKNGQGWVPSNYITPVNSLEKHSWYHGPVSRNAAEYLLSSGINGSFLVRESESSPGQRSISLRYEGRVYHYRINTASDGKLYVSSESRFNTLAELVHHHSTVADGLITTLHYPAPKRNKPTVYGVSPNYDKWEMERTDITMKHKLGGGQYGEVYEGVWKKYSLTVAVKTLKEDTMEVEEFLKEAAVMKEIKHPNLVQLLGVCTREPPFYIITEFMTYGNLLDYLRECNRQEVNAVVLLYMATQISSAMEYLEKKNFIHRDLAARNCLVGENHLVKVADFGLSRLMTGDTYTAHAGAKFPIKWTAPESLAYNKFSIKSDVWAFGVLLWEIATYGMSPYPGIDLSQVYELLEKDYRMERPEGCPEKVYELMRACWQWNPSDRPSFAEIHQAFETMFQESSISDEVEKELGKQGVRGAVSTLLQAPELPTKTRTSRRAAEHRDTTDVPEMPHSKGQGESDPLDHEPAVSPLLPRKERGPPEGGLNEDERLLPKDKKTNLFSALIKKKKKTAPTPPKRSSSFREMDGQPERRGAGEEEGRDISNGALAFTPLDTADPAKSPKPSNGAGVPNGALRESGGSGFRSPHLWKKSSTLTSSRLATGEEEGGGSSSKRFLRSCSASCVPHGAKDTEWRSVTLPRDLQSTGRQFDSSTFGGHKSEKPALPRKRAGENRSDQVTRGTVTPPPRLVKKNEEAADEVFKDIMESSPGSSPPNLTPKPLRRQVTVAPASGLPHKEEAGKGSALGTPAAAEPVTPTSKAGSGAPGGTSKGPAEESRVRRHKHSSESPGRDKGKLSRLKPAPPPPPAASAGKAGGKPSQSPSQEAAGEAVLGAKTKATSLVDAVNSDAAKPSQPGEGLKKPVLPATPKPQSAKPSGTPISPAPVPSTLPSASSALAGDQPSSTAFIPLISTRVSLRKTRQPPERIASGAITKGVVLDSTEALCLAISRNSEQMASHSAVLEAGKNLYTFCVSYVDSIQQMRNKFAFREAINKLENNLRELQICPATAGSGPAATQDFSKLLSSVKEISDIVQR

[7] = biological target: T1, Tyrosine-protein kinase ABL1; assay: Activation of full length human 6His-tagged c-Abl expressed in baculovirus expression system using abltide as substrate after 2 hrs by IMAP assay; settings: read-out: pIC50 (converted)
[8] = biological target: Tyrosine-protein kinase ABL1 (Homo sapiens, UniProt P00519, D382N); assay: Displacement of Myr-GQQPGKVLGDQRRPSL(K-TAMRA)G-amide from N-terminal-truncated human c-ABL D382N mutant (46 to 534 residues) after 30 mins by fluorescence polarization binding assay
Chain of Tyrosine-protein kinase ABL1 (Homo sapiens, UniProt P00519, D382N) (P00519 as listed by the source D382N): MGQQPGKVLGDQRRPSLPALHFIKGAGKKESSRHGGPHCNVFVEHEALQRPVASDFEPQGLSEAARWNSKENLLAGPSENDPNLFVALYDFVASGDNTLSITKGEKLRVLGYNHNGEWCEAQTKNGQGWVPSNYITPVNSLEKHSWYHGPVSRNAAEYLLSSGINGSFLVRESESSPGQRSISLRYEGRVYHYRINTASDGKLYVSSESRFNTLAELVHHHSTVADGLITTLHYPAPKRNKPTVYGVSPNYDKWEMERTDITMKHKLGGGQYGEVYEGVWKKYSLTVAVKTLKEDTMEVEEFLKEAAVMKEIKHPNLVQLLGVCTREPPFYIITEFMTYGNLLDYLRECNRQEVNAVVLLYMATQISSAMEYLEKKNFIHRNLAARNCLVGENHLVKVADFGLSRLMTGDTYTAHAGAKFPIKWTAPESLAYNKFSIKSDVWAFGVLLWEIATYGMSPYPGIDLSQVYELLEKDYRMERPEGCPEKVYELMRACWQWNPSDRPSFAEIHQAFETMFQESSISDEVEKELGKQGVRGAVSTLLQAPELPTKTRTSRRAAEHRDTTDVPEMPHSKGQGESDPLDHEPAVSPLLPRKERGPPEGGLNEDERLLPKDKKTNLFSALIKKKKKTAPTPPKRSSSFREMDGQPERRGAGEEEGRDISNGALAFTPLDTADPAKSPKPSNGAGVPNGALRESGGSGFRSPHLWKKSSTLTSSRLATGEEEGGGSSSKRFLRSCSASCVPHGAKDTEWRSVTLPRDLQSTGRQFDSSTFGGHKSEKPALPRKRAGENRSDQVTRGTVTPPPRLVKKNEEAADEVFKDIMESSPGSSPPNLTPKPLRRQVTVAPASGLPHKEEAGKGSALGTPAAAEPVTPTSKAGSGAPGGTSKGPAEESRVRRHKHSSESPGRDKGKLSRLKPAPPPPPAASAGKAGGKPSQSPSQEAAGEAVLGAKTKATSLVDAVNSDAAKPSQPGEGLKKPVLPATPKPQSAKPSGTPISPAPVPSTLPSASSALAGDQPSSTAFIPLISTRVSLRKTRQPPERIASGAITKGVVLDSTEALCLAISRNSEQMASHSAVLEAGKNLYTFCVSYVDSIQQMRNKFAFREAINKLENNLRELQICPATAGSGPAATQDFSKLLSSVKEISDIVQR

[9] = Terminal plasma concentration in CD1 mouse at 100 mg/kg, ip after 40 mins; format: ADME, organism-based; settings: read-out: Cp(T)
Mus musculus [10] = assay: In vivo activation of c-ABL in CD1 mouse assessed as fold increase in phosphorylated CRKL level at 100 mg/kg, ip after 40 mins relative to total CRK-L protein level; format: functional
Mus musculus [11] = assay: In vivo activation of c-ABL in CD1 mouse assessed as fold increase in phosphorylated CRKL level at 100 mg/kg, ip after 180 mins relative to total CRK-L protein level; format: functional

| CLint [2] | solubility kinetic at 1 h [3] | concentration at 3 h [4] | Papp at 3 h [5] | EC50 [6] | EC50 for c-Abl activation [7] | IC50 [8] | concentration at 40 min [9] | SMILES | Activity [1] | fold change (FC) (Mus musculus [10]) | fold change (FC) (Mus musculus [11]) |
| --- | --- | --- | --- | --- | --- | --- | --- | --- | --- | --- | --- |
|  | 12 µM (≈ 3.73 µg/mL) |  | 19 ×10⁻⁶ cm/s | 20000 nM | 3160 nM | 3980 nM |  | N#CCC(=O)Nc1cc(-c2ccc(Cl)c(Cl)c2)cs1 |  |  |  |
|  | 10 µM (≈ 3.11 µg/mL) |  | 12 ×10⁻⁶ cm/s | > 50100 nM | 15800 nM | 3980 nM |  | N#CCC(=O)Nc1csc(-c2ccc(Cl)c(Cl)c2)c1 |  |  |  |
|  | 429 µM (≈ 139 µg/mL) |  | 22 ×10⁻⁶ cm/s | > 50100 nM | 25100 nM | > 50100 nM |  | CS(=O)(=O)Nc1nc(-c2ccc(Cl)c(Cl)c2)cs1 |  |  |  |
|  | 34 µM (≈ 10 µg/mL) |  | 31 ×10⁻⁶ cm/s | 7940 nM | 2510 nM | 1580 nM |  | N#CCC(=O)Nc1ccn(-c2ccc(Cl)c(Cl)c2)n1 |  |  |  |
|  | 2 µM (≈ 0.713 µg/mL) |  | 6.1 ×10⁻⁶ cm/s | > 50100 nM | 501 nM | 200 nM |  | O=C(Nc1nc(-c2ccc(Cl)c(Cl)c2)cs1)c1cncs1 |  |  |  |

The remaining lines, values behind:

| SMILES | CLint [2] | solubility kinetic at 1 h [3] | concentration at 3 h [4] | Papp at 3 h [5] | EC50 [6] | EC50 for c-Abl activation [7] | IC50 [8] | concentration at 40 min [9] | Activity [1] | fold change (FC) (Mus musculus [10]) | fold change (FC) (Mus musculus [11]) |
| --- | --- | --- | --- | --- | --- | --- | --- | --- | --- | --- | --- |
| N#CCCC(=O)NC1=NN(c2ccc(Cl)c(Cl)c2)CC1 | < 10 µL/min/mg | 39 µM (≈ 12.1 µg/mL) | 17600 ng/mL | 35.5 ×10⁻⁶ cm/s | 794 nM | 251 nM | 316 nM | 15600 ng/mL | Toxic | 19 | 35 |
| O=C(NC1=NN(c2ccc(Cl)c(Cl)c2)CC1)c1ccnnc1 |  | 23 µM (≈ 7.73 µg/mL) |  | 36 ×10⁻⁶ cm/s | 501 nM | 251 nM | 501 nM |  |  |  |  |
| O=C(NC1=NN(c2ccc(Cl)c(Cl)c2)CC1CCO)c1cccnc1 (racemic) |  | 192 µM (≈ 72.8 µg/mL) |  | 19 ×10⁻⁶ cm/s | 7940 nM | 126 nM | 251 nM |  |  |  |  |
| CC(=O)Nc1nc(-c2ccc(Cl)c(F)c2)cs1 |  | 5 µM (≈ 1.35 µg/mL) |  | 35 ×10⁻⁶ cm/s | 50100 nM | 3160 nM | 794 nM |  |  |  |  |
| CC(=O)Nc1nc(-c2cc(Cl)c(Cl)s2)cs1 |  | 1 µM (≈ 0.293 µg/mL) |  | 28 ×10⁻⁶ cm/s | > 50100 nM | > 100000 nM | 6310 nM |  |  |  |  |
| O=C(NC1=NN(c2ccc(Cl)c(Cl)c2)CC1)c1ccncc1 |  | 9 µM (≈ 3.02 µg/mL) |  | 30.3 ×10⁻⁶ cm/s | 1580 nM | 200 nM | 316 nM |  |  |  |  |
| Cn1ncc([N+](=O)[O-])c1C(=O)Nc1nc(-c2ccc(Cl)c(Cl)c2)cs1 |  | < 1 µM |  | 26 ×10⁻⁶ cm/s | 15800 nM | 31.6 nM | 200 nM |  |  |  |  |
| CC(=O)NC1=NN(c2ccc(Cl)c(Cl)c2)CC1 |  | 31 µM (≈ 8.44 µg/mL) |  | 36 ×10⁻⁶ cm/s | 794 nM | 316 nM | 398 nM |  |  |  |  |
| O=C(NC1=NN(c2ccc(Cl)c(Cl)c2)CC1)c1ccncn1 |  | 13 µM (≈ 4.37 µg/mL) |  | 32 ×10⁻⁶ cm/s | 39800 nM | 15800 nM | 1000 nM |  |  |  |  |
